Results: PMC6563616, “Thymine DNA glycosylase as a novel target for melanoma” (Oncogene, 2019)

Columns and labels:
[1] = molecular target: T1, thymine DNA glycosylase (TDG) (Homo sapiens, UniProt Q13569); assay: molecular beacon screen with recombinant TDG, confirmed in radioactive DNA glycosylase assay; format: biochemical
[2] = molecular target: T1, thymine DNA glycosylase (TDG); assay: radioactive DNA glycosylase assay with purified recombinant TDG; TDG/APE1 molecular beacon assay (dose-dependent); 5caC increase in cells; format: biochemical

T1 sequence (Q13569 whole entry): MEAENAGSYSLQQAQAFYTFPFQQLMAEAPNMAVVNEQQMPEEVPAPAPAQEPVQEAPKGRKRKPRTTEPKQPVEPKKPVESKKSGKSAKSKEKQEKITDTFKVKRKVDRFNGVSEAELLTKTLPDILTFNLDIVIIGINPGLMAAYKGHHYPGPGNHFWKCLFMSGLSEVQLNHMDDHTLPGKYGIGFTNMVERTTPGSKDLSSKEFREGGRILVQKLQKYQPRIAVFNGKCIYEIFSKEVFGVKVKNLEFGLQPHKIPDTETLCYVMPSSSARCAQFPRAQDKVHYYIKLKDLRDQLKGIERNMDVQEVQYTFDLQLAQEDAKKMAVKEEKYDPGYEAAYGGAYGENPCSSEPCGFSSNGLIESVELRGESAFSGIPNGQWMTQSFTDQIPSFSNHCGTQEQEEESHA

SMILES	molecular beacon screen with recombinant TDG, confirmed in radioactive DNA glyco [1]	radioactive DNA glycosylase assay with purified recombinant TDG; TDG/APE1 molecu [2]
C=CC1=C(C(=O)O)N2C(=O)[C@@H](NC(=O)/C(=N\OCC(=O)O)c3csc(N)n3)[C@H]2SC1 [cefixime]	including closantel, juglone, and cefixime, were confirmed as TDG inhibitors in a standard, radioactive DNA glycosylase assay	–
Cc1cc(C(C#N)c2ccc(Cl)cc2)c(Cl)cc1NC(=O)c1cc(I)cc(I)c1O (stereo not drawn) [closantel]	–	including closantel, juglone, and cefixime, were confirmed as TDG inhibitors in a standard, radioactive DNA glycosylase assay
O=C1C=CC(=O)c2c(O)cccc21 [juglone]	–	including closantel, juglone, and cefixime, were confirmed as TDG inhibitors in a standard, radioactive DNA glycosylase assay
